Measurements reported in patent publication US10206401B2, “Pyridine compounds for controlling invertebrate pests II” (BASF SE, priority 2010, dated 2019).

Experiments:
Type in all cases: in vivo
[1] = test system: Cotton Aphid (Aphis gossypii, Mixed Life Stages); assay: Cotton aphid, method a (cotyledon dip); details: 120 h, cotton cotyledons dipped, after 5 days, read-out: mortality in comparison with untreated controls
Excerpt: II.1 Cotton Aphid (Aphis gossypii, Mixed Life Stages)
The active compounds were formulated in 50:50 (vol/vol) acetone:water and 100 ppm Kinetica™ surfactant.
Cotton plants at the cotyledon stage (one plant per pot) were infested by placing a heavily infested leaf from the main colony on top of each cotyledon. The aphids were allowed to transfer to the host plant overnight, and the leaf used to transfer the aphids was removed. The cotyledons were dipped in the test solution and allowed to dry. After 5 days, mortality counts were made.

[2] = test system: Cowpea Aphid (Aphis craccivora); assay: Cowpea aphid, potted cowpea plants sprayed; details: population reduction assessed after 24, 72 and 120 hours, read-out: mortality in comparison with untreated controls
Procedure: II.3 Cowpea Aphid (Aphis craccivora)
The active compounds were formulated in 50:50 (vol/vol) acetone:water. The test solution was prepared at the day of use.
Potted cowpea plants colonized with 100-150 aphids of various stages were sprayed after the pest population had been recorded. Population reduction was assesed after 24, 72, and 120 hours.

[3] = test system: Vetch Aphid (Megoura viciae); assay: Vetch aphid, bean leaf disks in microtiterplates; details: foliar, 144 h, test solution 2500 mg/L, bean leaf disks sprayed, 6 days
Procedure: II.4 Vetch Aphid (Megoura viciae)
The active compounds were formulated in 1:3 (vol/vol) DMSO:water with different concentrations of formulated compounds.
Bean leaf disks were placed into microtiterplates filled with 0.8% agar-agar and 2.5 ppm OPUS™. The leaf disks were sprayed with 2.5 μl of the test solution and 5 to 8 adult aphids were placed into the microtiterplates which were then closed and kept at 23±1° C. and 50±5% relative humidity under fluorescent light for 6 days. Mortality was assessed on the basis of vital, reproduced aphids. Aphid mortality and fecundity was then visually assessed.

Compound: Cc1c(C(=O)Nc2cccnc2)nnn1Cc1ccccc1 [Example 2, 1-Benzyl-5-methyl-1H-[1,2,3]triazole-4-carboxylic acid pyridin-3-ylamide]
- mortality at 300 ppm [1]: ≥ 75%
- mortality at 300 ppm [2]: ≥ 90%
- mortality at 2500 µg/mL [3]: ≥ 90%
